{
  "source": "patent US20250230193A1",
  "about": "“CYCLIC COMPOUND HAVING SELECTIVE KRAS INHIBITORY EFFECT ON HRAS AND NRAS” (CHUGAI SEIYAKU KABUSHIKI KAISHA, priority 2022, published 2025)",
  "key": {"[1]": {"target": "GDP-bound NRAS wild-type protein (Homo sapiens, UniProt P01111)", "sequence (P01111 whole entry)": "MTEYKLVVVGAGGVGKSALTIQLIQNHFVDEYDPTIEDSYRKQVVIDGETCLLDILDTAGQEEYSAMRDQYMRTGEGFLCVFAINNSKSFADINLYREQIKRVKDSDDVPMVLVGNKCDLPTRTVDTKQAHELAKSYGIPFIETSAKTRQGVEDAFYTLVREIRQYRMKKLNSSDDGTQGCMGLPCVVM", "experiment": "Binding to NRAS by surface plasmon resonance (SPR), Single Cycle Kinetics"}, "[2]": {"target": "GDP-bound HRAS wild-type protein (Homo sapiens, UniProt P01112)", "sequence (P01112 whole entry)": "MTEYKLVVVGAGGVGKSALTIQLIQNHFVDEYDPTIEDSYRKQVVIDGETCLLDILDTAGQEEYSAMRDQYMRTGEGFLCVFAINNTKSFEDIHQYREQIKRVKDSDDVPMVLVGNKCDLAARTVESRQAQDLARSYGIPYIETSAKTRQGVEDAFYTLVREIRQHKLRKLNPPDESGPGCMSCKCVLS", "experiment": "Binding to HRAS by surface plasmon resonance (SPR), Single Cycle Kinetics"}, "[3]": {"details": "KD ratio NRAS/KRAS, class symbols"}, "[4]": {"details": "KD ratio HRAS/KRAS, class symbols"}, "[5]": {"details": "KD ratio, GDP-bound NRAS wild-type vs GDP-bound KRAS wild-type, SPR"}, "[6]": {"details": "KD ratio, GDP-bound HRAS wild-type vs GDP-bound KRAS wild-type, SPR"}},
  "note": "*1 amine or outer side, *2 acyl side, *3 side chain or, on linkers, in order; H or OH if unused. Where a SMILES comes first, the peptide text is derived from it. Bridges are numbered along the chain shown (N, C = ends). [ ]: non-standard residue; d: D form. The star is where a group is joined. hPhe(3-Cl-4-CF3) = N[C@@H](CCc1ccc(C(F)(F)F)c(Cl)c1)C(=O)O; X41 = Cc1ccc(C[C@@H](C(=O)[*:2])N(CCC(F)(F)F)[*:1])cc1; NPrPhe(4-CF3) = CCCN[C@@H](Cc1ccc(C(F)(F)F)cc1)C(=O)O; NMeGly(cPent) = CN[C@H](C(=O)O)C1CCCC1; NMeD = CN[C@@H](CC(=O)O)C(=O)O; NMeL = CN[C@@H](CC(C)C)C(=O)O; Morpholide = C1CN(*)CCO1; Ac5c = NC1(C(=O)O)CCCC1; Aze = O=C(O)[C@@H]1CCN1; Sar = CNCC(=O)O",
  "data": [
    {"smiles": "CC[C@H](C)[C@@H]1NC(=O)[C@H](CC(C)C)N(C)C(=O)C[C@@H](C(=O)N2CCOCC2)N(C)C(=O)[C@H](C2CCCC2)N(C)C(=O)C2(CCCC2)NC(=O)[C@@H]2CCCN2C(=O)[C@H](CCc2ccc(C(F)(F)F)c(Cl)c2)NC(=O)CN(C)C(=O)[C@H](Cc2ccc(C)cc2)N(CCC(F)(F)F)C(=O)CN(C)C(=O)CN(C)C1=O", "note": "[PP0103] ([NMeL]I[Sar][Sar][X41][Sar][hPhe(3-Cl-4-CF3)]P[Ac5c][NMeGly(cPent)][NMeD]-Morpholide; lactam N-11)", "values": [
      {"measurement": "NRAS/KRAS (ratio of KD for GDP-bound NRAS wild-type to KD for KRAS)", "setting": "[1]; KD ratio NRAS/KRAS, SPR", "value": "B (a compound having 3 or more and less than 10 is denoted as B)"},
      {"measurement": "HRAS/KRAS (ratio of KD for GDP-bound HRAS wild-type to KD for KRAS)", "setting": "[2]; KD ratio HRAS/KRAS, SPR", "value": "C (A compound having a KD ratio of 0.1 or more and less than 3 is denoted as C)"}
    ]},
    {"smiles": "CCO[C@@H]1C[C@H]2C(=O)NC3(CCC3)C(=O)N(C)[C@@H](C3CCCC3)C(=O)N(C)[C@H](C(=O)N(C)CC)CC(=O)N(C)[C@@H](CC(C)C)C(=O)N[C@@H]([C@@H](C)CC)C(=O)N(C)CC(=O)N(C)[C@H]3C/C=C\\CCN(C3=O)[C@@H](Cc3ccc(C(F)(F)F)cc3)C(=O)N(C)CC(=O)N[C@@H](CCc3ccc(Cl)c(Cl)c3)C(=O)N2C1", "note": "[PP2845]", "values": [
      {"measurement": "NRAS/KRAS (ratio of KD value with respect to GDP-bound NRAS wild-type protein to KD value with respect to KRAS)", "setting": "[1]; [3]", "value": "AA (a compound having 20 or more is denoted as AA)"},
      {"measurement": "HRAS/KRAS (ratio of KD value with respect to GDP-bound HRAS wild-type protein to KD value with respect to KRAS)", "setting": "[2]; [4]", "value": "A (a compound having 10 or more and less than 20 is denoted as A)"}
    ]},
    {"smiles": "CC[C@H](C)[C@@H]1NC(=O)[C@H](CC)N(C)C(=O)C[C@@H](C(=O)N(C)C)N(C)C(=O)[C@H](C2CCCC2)N(C)C(=O)C2(CCC2)N(C)C(=O)[C@@H]2C[C@@H](C)CN2C(=O)[C@H](CCc2cc(F)c(C(F)(F)F)c(F)c2)NC(=O)CN(C)C(=O)[C@H](Cc2ccc(C)cc2)N2CC/C=C\\C[C@@H](C2=O)N(C)C(=O)[C@@H]2CCCN2C1=O", "note": "[PP1789]", "values": [
      {"measurement": "NRAS/KRAS (ratio of KD value for NRAS to KD value for KRAS)", "setting": "[1]; [5]", "value": "A (a compound having 10 or more and less than 20 is denoted as A)"},
      {"measurement": "HRAS/KRAS (ratio of KD value for HRAS to KD value for KRAS)", "setting": "[2]; [6]", "value": "A (a compound having 10 or more and less than 20 is denoted as A)"}
    ]},
    {"smiles": "CCO[C@@H]1C[C@H]2C(=O)NC3(CC(C)(C)C3)C(=O)N(C)[C@@H](C(CC)CC)C(=O)N(C)[C@H](C(=O)N(C)C)CC(=O)N(C)[C@@H](CC3CC3)C(=O)N[C@@H]([C@@H](C)CC)C(=O)N(C)CC(=O)N(C)[C@H]3C/C=C\\CCN(C3=O)[C@@H](Cc3ccc(C)cc3)C(=O)N(C)CC(=O)N[C@@H](CCc3ccc(C(F)(F)F)c(Cl)c3)C(=O)N2C1", "note": "[PP2142]", "values": [
      {"measurement": "NRAS/KRAS (ratio of KD value with respect to NRAS to KD value with respect to KRAS)", "setting": "[1]; SPR, GDP-bound NRAS wild-type vs GDP-bound KRAS wild-type", "value": "AA (a compound having 20 or more is denoted as AA)"},
      {"measurement": "HRAS/KRAS (ratio of KD value with respect to HRAS to KD value with respect to KRAS)", "setting": "[2]; SPR, GDP-bound HRAS wild-type vs GDP-bound KRAS wild-type", "value": "A (a compound having 10 or more and less than 20 is denoted as A)"}
    ]},
    {"smiles": "CCO[C@@H]1C[C@H]2C(=O)NC3(CCC3)C(=O)N(C)[C@@H](C3CCCC3)C(=O)N(C)[C@H](C(=O)N3CCOCC3)CC(=O)N(C)[C@@H](CC(C)C)C(=O)N[C@@H]([C@@H](C)CC)C(=O)N(C)CC(=O)N(C)[C@H]3CCCCCN(C3=O)[C@@H](Cc3nccs3)C(=O)N(C)CC(=O)N[C@@H](CCc3cc(F)c(C(F)(F)F)c(F)c3)C(=O)N2C1", "note": "[PP0923]", "values": [
      {"measurement": "NRAS/KRAS (ratio of KD value with respect to NRAS to KD value with respect to KRAS)", "setting": "[1]; [5]", "value": "B (a compound having 3 or more and less than 10 is denoted as B)"},
      {"measurement": "HRAS/KRAS (ratio of KD value with respect to HRAS to KD value with respect to KRAS)", "setting": "[2]; [6]", "value": "B (a compound having 3 or more and less than 10 is denoted as B)"}
    ]},
    {"smiles": "CCC[C@H]1C(=O)N[C@@H]([C@@H](C)CC)C(=O)N(C)CC(=O)N(C)[C@H]2C/C=C\\CCN(C2=O)[C@@H](Cc2ccc(C)cc2)C(=O)N(C)CC(=O)N[C@@H](CCc2ccc(Cl)c(Cl)c2)C(=O)N2C[C@H](OCC)C[C@H]2C(=O)NC2(CC(C)(C)C2)C(=O)N(C)[C@@H](CC2CC2)C(=O)N(C)[C@H](C(=O)N(C)C)CC(=O)N1C", "note": "[PP2799]", "values": [
      {"measurement": "NRAS/KRAS (ratio of KD value with respect to GDP-bound NRAS wild-type protein to KD value with respect to KRAS)", "setting": "[1]; [3]", "value": "A (a compound having 10 or more and less than 20 is denoted as A)"},
      {"measurement": "HRAS/KRAS (ratio of KD value with respect to GDP-bound HRAS wild-type protein to KD value with respect to KRAS)", "setting": "[2]; [4]", "value": "A (a compound having 10 or more and less than 20 is denoted as A)"}
    ]},
    {"smiles": "CCCN1C(=O)[C@@H]2CCN2C(=O)CN(C)C(=O)[C@H]([C@@H](C)CC)NC(=O)[C@H](CC(C)C)N(C)C(=O)C[C@@H](C(=O)N(C)C)N(C)C(=O)[C@H](C2CCCC2)N(C)C(=O)C2(CCCC2)NC(=O)[C@@H]2CCCN2C(=O)[C@H](CCc2ccc(C(F)(F)F)c(Cl)c2)NC(=O)CN(C)C(=O)[C@@H]1Cc1ccc(C(F)(F)F)cc1", "note": "[PP0440] ([NMeL]I[Sar][Aze][NPrPhe(4-CF3)][Sar][hPhe(3-Cl-4-CF3)]P[Ac5c][NMeGly(cPent)][NMeD]-NMe2; lactam N-11)", "values": [
      {"measurement": "NRAS/KRAS (ratio of KD value with respect to GDP-bound NRAS wild-type protein to KD value with respect to KRAS)", "setting": "[1]; KD ratio NRAS/KRAS, SPR", "value": "C (A compound having a KD ratio of 0.1 or more and less than 3 is denoted as C)"},
      {"measurement": "HRAS/KRAS (ratio of KD value with respect to GDP-bound HRAS wild-type protein to KD value with respect to KRAS)", "setting": "[2]; KD ratio HRAS/KRAS, SPR", "value": "B (a compound having 3 or more and less than 10 is denoted as B)"}
    ]}
  ]
}
